Data as given in PMC9579011, “Coprinopsis cinerea dioxygenase is an oxygenase forming 10(S)-hydroperoxide of linoleic acid, essential for mushroom alcohol, 1-octen-3-ol, synthesis” (The Journal of Biological Chemistry, 2022).

Legend:
[1] = target: T1, CcDOX1 (Coprinopsis cinerea, UniProt A8N8W9); test: LC-MS/MS product peak area, Hill fit of [S]-v plot; assay type: biochemical; conditions: Hill coefficient n = 1.9 ± 0.27; 10-500 μM substrate, 30 min on ice; bead-bound immunopurified EGFP fusion; lysis buffer pH 7.4
T1 construct: gene CC1G_00844; full length, 1066 aa, C-terminal EGFP fusion, expressed in BmN4 (Bombyx mori) cells, immunopurified on anti-GFP beads
T1 sequence (A8N8W9 1-1066): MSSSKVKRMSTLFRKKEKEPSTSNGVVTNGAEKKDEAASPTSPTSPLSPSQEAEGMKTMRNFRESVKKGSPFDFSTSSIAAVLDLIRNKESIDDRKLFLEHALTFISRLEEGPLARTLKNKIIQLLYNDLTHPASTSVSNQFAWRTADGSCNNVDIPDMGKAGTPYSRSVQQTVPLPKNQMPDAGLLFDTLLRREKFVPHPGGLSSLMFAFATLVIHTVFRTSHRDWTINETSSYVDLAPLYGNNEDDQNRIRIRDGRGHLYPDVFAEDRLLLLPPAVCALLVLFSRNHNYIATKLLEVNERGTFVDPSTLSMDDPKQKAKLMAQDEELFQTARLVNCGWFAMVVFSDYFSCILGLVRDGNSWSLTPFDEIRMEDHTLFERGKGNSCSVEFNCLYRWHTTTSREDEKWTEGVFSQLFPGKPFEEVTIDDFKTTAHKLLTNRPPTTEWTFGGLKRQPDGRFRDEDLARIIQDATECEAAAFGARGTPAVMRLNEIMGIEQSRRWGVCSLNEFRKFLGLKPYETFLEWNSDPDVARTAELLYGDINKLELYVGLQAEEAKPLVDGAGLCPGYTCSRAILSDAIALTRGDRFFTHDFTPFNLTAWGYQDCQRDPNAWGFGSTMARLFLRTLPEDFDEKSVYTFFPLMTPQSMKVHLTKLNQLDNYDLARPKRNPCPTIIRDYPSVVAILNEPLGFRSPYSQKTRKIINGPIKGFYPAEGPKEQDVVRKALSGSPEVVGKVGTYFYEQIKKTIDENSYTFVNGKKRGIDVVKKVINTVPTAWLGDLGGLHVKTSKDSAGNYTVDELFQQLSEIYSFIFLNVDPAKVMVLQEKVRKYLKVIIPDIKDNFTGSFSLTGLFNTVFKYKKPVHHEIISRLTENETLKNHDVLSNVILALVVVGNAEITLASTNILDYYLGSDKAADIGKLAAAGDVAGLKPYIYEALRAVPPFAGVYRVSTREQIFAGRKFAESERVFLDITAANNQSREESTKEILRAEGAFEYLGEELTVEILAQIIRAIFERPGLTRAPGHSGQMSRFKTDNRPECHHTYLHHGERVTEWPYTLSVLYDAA

[2] = target: T2, CcDOX2 (Coprinopsis cinerea, UniProt A8NN01); test: LC-MS/MS of products after triphenylphosphine reduction; assay type: biochemical; conditions: immunopurified EGFP fusion; 8-hydroperoxide product (tentative)
T2 construct: gene CC1G_09914; full length, 1118 aa, C-terminal EGFP fusion, expressed in BmN4 (Bombyx mori) cells, immunopurified with anti-GFP antibody
T2 sequence (A8NN01 1-1118): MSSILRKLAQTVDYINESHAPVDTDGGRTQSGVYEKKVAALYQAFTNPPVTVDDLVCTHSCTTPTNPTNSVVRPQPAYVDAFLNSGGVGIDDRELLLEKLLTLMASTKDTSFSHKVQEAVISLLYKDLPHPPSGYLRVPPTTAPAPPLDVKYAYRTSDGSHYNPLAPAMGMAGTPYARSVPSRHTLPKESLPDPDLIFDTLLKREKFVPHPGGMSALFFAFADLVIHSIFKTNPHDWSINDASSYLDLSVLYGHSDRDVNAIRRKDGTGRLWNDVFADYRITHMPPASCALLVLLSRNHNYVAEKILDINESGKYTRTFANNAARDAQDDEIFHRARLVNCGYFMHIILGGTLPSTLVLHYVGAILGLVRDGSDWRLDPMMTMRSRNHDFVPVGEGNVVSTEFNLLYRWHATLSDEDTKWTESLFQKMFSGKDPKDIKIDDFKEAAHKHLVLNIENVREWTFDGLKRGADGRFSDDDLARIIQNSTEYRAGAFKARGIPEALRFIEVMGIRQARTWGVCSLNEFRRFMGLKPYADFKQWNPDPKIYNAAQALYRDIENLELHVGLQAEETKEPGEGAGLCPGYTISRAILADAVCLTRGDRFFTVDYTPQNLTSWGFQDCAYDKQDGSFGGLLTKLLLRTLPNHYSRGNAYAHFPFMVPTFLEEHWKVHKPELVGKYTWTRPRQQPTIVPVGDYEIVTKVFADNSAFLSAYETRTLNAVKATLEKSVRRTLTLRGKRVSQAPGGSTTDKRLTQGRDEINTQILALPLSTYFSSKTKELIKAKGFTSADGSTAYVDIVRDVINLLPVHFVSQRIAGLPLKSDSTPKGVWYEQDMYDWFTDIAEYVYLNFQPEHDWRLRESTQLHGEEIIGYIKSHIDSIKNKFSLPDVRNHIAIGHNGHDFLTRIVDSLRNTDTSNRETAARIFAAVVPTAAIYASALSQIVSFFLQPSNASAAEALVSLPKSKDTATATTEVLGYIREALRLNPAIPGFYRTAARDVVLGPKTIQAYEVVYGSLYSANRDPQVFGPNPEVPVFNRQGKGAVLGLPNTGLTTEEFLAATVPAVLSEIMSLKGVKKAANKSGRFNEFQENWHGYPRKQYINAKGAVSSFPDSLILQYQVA

- KA [1]: 78 ± 9.74 µM
Structure (SMILES): CCCCC/C=C\C/C=C\CCCCCCCC(=O)O [linoleic acid]
- LC-MS/MS of products after triphenylphosphine reduction [2]: Linoleic acid was added to the purified recombinant CcDOX1 and CcDOX2
